Data from PubChem BioAssay AID2627 (Broad Institute, 2010).

Target: Alpha-synuclein (Homo sapiens) (UniProt P37840)
Assay: activators of alpha-synuclein protein translation, dose response, Western blot, H4 cells (AID 2627)
Conditions: alpha-synuclein protein level

## c1ccc2c(Nc3nnc(-c4ccncc4)s3)cccc2c1
  ECmax: 1000 nM
